In patent publication US7842488B2, “Polynucleotides encoding a human 3-phosphoinositide- dependent protein kinase” (Medical Research Council, priority 1997, dated 2010):
One block for each molecule: values may come before it.

Key:
[1] = system: PDK1; experiment: PDK1 assay: activation of GST-PKBα by purified PDK1 with phospholipid vesicles; type: biochemical, rabbit; conditions: for activation of PDK1 (in words) / fold-activation of GST-PKBα (PDK1 activity): lipid 10 μM in vesicles of 100 μM PtdCho, 100 μM PtdSer, 30 min at 30° C.; for order of level of activation of the 3-phosphoinositide-dependent kinase (most effective first): rabbit skeletal muscle PDK1, FIG. 6; for activation and phosphorylation of GST-PKBα by PDK1 in the presence of Triton X-100: 0.5% (by vol) in the assay
Experimental: (§1) Assay of PDK1. The assay was carried out in two stages; in the first, GST-PKBα was incubated with PDK1 in the presence of MgATP and phospholipid vesicles to permit activation of GST-PKBα.
(§2) After 10 min at 30° C., the reactions were terminated by spotting the reaction mixture on to p81 phosphocellulose paper. The papers were washed in phosphoric acid and analysed as described previously. […] The basal GST-PKBα activity is the activity measured in the absence of PDK1.

[2] = system: PDK1; experiment: Phosphorylation of GST-PKBα by PDK1 with [γ32P]ATP; type: biochemical, rabbit; conditions: lipid 10 μM in PtdCho/PtdSer vesicles
Experimental: Solutions were stored at 4° C. at concentrations 10-fold higher than those required in the assay and used within 2-4 days.
(§3) Phosphorylation of GST-PKB ? by PDK1. The incubations were identical to the Stage 1 described above except that [γ^32P] ATP (200-400 cpm/pmol) was used instead of unlabelled ATP. The reactions were terminated by making the solution 1% (by mass) in SDS. […] The Coomassie blue-staining bands corresponding to GST-PKBα were excised and the ^32P-radioactivity associated with each band was quantified.

[3] = molecular target: T1, GST-PKBα (Homo sapiens, UniProt P31749); experiment: Activity of PDK1 preparations towards GST-PKBα; type: biochemical; conditions: for phosphorylation of GST-PKBα: PtdIns(3,4,5)P3 lipids, high enzyme concentration; for specific activity towards GST-PKBα: in the presence of PtdIns(3,4,5)P3; for fold increase in GST-PKBα activity: in the presence of PtdIns(3,4,5)P3 vesicles
T1 construct: generate a full length cDNA encoding the PKBα gene; made in house; host or cells: human embryonic kidney 293 cells (pEBG2T), serum starved
Experimental: as §1, §2, §3

T1 sequence (P31749 whole entry): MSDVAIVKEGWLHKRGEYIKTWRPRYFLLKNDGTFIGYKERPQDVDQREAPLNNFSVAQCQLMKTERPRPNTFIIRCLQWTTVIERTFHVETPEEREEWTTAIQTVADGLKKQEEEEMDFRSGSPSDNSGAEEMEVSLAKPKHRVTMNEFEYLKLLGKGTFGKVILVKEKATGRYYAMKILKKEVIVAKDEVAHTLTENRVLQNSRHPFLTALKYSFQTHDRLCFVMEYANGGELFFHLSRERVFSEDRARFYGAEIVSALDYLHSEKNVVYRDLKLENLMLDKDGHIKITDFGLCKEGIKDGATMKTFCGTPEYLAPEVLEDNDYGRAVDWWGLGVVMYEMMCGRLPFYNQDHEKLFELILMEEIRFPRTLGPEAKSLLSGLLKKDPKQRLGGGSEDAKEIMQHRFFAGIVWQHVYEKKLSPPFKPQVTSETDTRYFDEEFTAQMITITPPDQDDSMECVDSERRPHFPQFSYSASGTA

Molecule: CCCCC/C=C\C/C=C\C/C=C\C/C=C\CCCC(=O)OC(COC(=O)CCCCCCCCCCCCCCCCC)COP(=O)(O)OC1C(O)C(OP(=O)(O)O)C(OP(=O)(O)O)C(OP(=O)(O)O)C1O (single isomer, unassigned) [Lipid 4, L-enantiomer of sn-2-arachidonyl-3-stearoyl PtdIns(3,4,5)P3]
activation of PDK1 (in words) [1]: no significant activation
fold-activation of GST-PKBα (PDK1 activity) ([1]; 3-stearoyl L-PtdIns(3,4,5)P3): 2.3 fold
activation of PDK1 (in words) ([1]; listed as L-enantiomer of sn-2-arachidonyl-3-stearoyl PtdIns(3,4,5)P3): almost ineffective

Molecule: CCCCCCCCCCCCCCCC(=O)OCC(COP(=O)(O)OC1C(O)C(OP(=O)(O)O)C(OP(=O)(O)O)C(OP(=O)(O)O)C1O)OC(=O)CCCCCCCCCCCCCCC (centres unmarked) [Lipid 6, sn-1,2 di-palmitoyl PtdIns(3,4,5)P3]
fold less effective in activating PDK1 than the sn-1-stearoyl-2-arachidonyl and sn-2-arachidonyl-3-stearoyl derivatives [1]: ~3 fold
fold-activation of GST-PKBα (PDK1 activity) [1]: about 6 fold
fold-activation of GST-PKBα (PDK1 activity) ([1]; listed as sn-1,2-dipalmitoyl D-PtdIns(3,4,5)P3): 5.5 fold
order of level of activation of the 3-phosphoinositide-dependent kinase (most effective first) [1]: 4

Molecule: PtdIns 4P [Lipid 10]
phosphorylation of GST-PKBα by PDK1 (in words) [2]: did not activate PDK1 or induce the phosphorylation
activation of PDK1 (in words) [1]: no significant activation
activation of PDK1 (in words) ([1]; listed as PtdIns(4)P): did not activate PDK1 at all
activation of PDK1 (in words) ([1]; listed as lipid 10): did not activate PDK1

Molecule: protein tyrosine phosphatase 1B: protein tyrosine phosphatase 1B
PDK1 activity after treatment with phosphatase ([1]; high concentrations of phosphatase): no effect on activity

Molecule: Triton X-100
activation and phosphorylation of GST-PKBα by PDK1 in the presence of Triton X-100 ([1]; listed as Triton X100): completely inhibits
activation and phosphorylation of GST-PKBα by PDK1 in the presence of Triton X-100 ([1]; listed as Triton-X100): prevented

Molecule: CCCCCCCCCCCCCCCC(=O)OC[C@H](COP(=O)(O)OC1C(O)C(OP(=O)(O)O)C(O)C(OP(=O)(O)O)C1O)OC(=O)CCCCCCCCCCCCCCC (some centres unmarked) [Lipid 8, sn-1,2 di-palmitoyl PtdIns(3,5)P2]
phosphorylation of GST-PKBα by PDK1 (in words) [2]: did not activate PDK1 or induce the phosphorylation
activation of PDK1 (in words) [1]: no significant activation
activation of PDK1 (in words) ([1]; listed as PtdIns(3,5)P2): did not activate PDK1 at all
activation of PDK1 (in words) ([1]; listed as lipid 8): did not activate PDK1

Molecule: O=P(O)(O)O[C@H]1[C@H](O)[C@@H](OP(=O)(O)O)[C@H](OP(=O)(O)O)[C@@H](OP(=O)(O)O)[C@H]1O [IP4, inositol 1,3,4,5-tetrakisphosphate]
phosphorylation of GST-PKBα by PDK1 (in words) [2]: did not activate PDK1 or induce the phosphorylation
activation of PDK1 (in words) [1]: no significant activation
activation of PDK1 (in words) ([1]; listed as Ins(1,3,4,5)P4): did not activate PDK1
activation of PDK1 (in words) ([1]; listed as inositol 1,3,4,5-tetrakisphosphate): did not activate PDK1 at all

B1: GST-D223A-PDK1: catalytically inactive GST-PDK1 mutant in which Asp223 was changed to Ala (protein, UniProt O15530 1-556, looked up, variant D223A)
3-phosphoinositide-dependent …: MARTTSQLYDAVPIQSSVVLCSCPSPSMVRTQTESSTPPGIPGGSRQGPAMDGTAAEPRPGAGSLQHAQPPPQPRKKRPEDFKFGKILGEGSFSTVVLARELATSREYAIKILEKRHIIKENKVPYVTRERDVMSRLDHPFFVKLYFTFQDDEKLYFGLSYAKNGELLKYIRKIGSFDETCTRFYTAEIVSALEYLHGKGIIHRDLKPENILLNEDMHIQITAFGTAKVLSPESKQARANSFVGTAQYVSPELLTEKSACKSSDLWALGCIIYQLVAGLPPFRAGNEYLIFQKIIKLEYDFPEKFFPKARDLVEKLLVLDATKRLGCEEMEGYGPLKAHPFFESVTWENLHQQTPPKLTAYLPAMSEDDEDCYGNYDNLLSQFGCMQVSSSSSSHSLSASDTGLPQRSGSNIEQYIHDLDSNSFELDLQFSEDEKRLLLEKQAGGNPWHQFVENNLILKMGPVDKRKGLFARRRQLLLTEGPHLYYVDPVNKVLKGEIPWSQELRPEAKNFKTFFVHTPNRTYYLMDPSGNAHKWCRKIQEVWRQRYQSHPDAAVQ
modifications: GST fusion tag
phosphorylation and activation of GST-PKBα (in words) ([3]; PtdCho/PtdSer lipid vesicles containing PtdIns(3,4,5)P3): did not phosphorylate or active GST-PKBα

B3: GST-DSTPK61: residues 1-752 of Drosophila DSTPK61 expressed in E. coli as GST fusion (protein)
chain: MKCKSWSNKINNYVVRKIKSIKINGTQQQLQLPGSGASGIAAAAVITVASDCGENCSSNGTEHQQHFNIATTTATSATEATMPAMAKEKASATVSLGESNFRDINLKDLAVVVEAASRLHHQQNVCGCGAVSSTENNNNSRYGSSKYLTNGHTSPLAAAVASNSSSVATTPHCRMLHNCSLQQYQNDIRQQTEILDMLRQQHQQGYQSQQQQQQPQQQQEQQQQQEQSQQQQQLQNPAPRRSPNDFIFGRYIGEGSYSIVYLAVDIHSRREYAIKVCEKRLILRERKQDYIKREREVMHQMTNVPGFVNLSCTFQDQRSLYFVMTYARKGDMLPYINRVGSFDVACTRHYAAELLLACEHMHRRNVVHRDLKPENILLDEDMHTLIADFGSAKVMTAHERALATEHCSEQRRSNSDEDDEDSDRLENEDEDFYDRDSEELDDGDDEQQQEEMDSPRHRQRRYNRHRKASFVGTAQYVSPEVLQNGPITPAADLWALGCIVYQMIAGLPPFRGSNDYVIFKEILDCAVDFPQGFDKDAEDLVRKLLRVDPRDRLGAQDEFGYYESIRAHPFFAGIDWQTLRQQTPPPIYPYLPGVSQDEDFRSSYTVPGDLEPGLDERQISRLLSAELGVGSSVAMPVKRSTAKNSFDLNDAEKLQRLEQQKTDKWHVFADGEVILKKGFVNKRKGLFARKRMLLLTTGPRLIYIDPVQMIKKGEIPWSPDLRAEYKNFKIFFVHTPNRTYYLDDPEGYAIHW
modifications: left off: a dimerising Fc or GST
notes: residues 1-752 of Drosophila DSTPK61 expressed in E. coli as GST fusion
phosphorylation of GST-PKBα [3]: 0.75 mol phosphate per mol protein
specific activity towards GST-PKBα [3]: 280 U/mg
fold increase in GST-PKBα activity [3]: 35 fold

The next lines start with results.

phosphorylation of GST-PKBα [3]: 0.75 mol phosphate per mol protein
fold increase in GST-PKBα activity [3]: 35 fold
Molecule: GST-PDK1: residues 52-556 of human PDK1 expressed in 293 cells as fusion with glutathione S-transferase
specific activity towards GST-PKBα [3]: 78 000 U/mg

order of level of activation of the 3-phosphoinositide-dependent kinase (most effective first) [1]: 2
Molecule: CCCCC/C=C\C/C=C\C/C=C\C/C=C\CCCC(=O)OC(COC(=O)CCCCCCCCCCCCCCCCC)COP(=O)(O)OC1C(O)C(OP(=O)(O)O)C(OP(=O)(O)O)C(OP(=O)(O)O)C1O (single isomer, unassigned) [Lipid 3, D-enantiomer of sn-2-arachidonyl-3-stearoyl PtdIns(3,4,5)P3]
fold-activation of GST-PKBα (PDK1 activity) ([1]; 3-stearoyl D-PtdIns(3,4,5)P3): 16 fold
activation of PDK1 (in words) ([1]; listed as D-enantiomer of sn-2-arachidonyl-3-stearoyl PtdIns(3,4,5)P3): potently activated PDK1

order of level of activation of the 3-phosphoinositide-dependent kinase (most effective first) [1]: 1
Molecule: CCCCC/C=C\C/C=C\CCCCCCCC(=O)OCC(COP(=O)(O)OC1C(O)C(OP(=O)(O)O)C(OP(=O)(O)O)C(OP(=O)(O)O)C1O)OC(=O)CCCCCCC/C=C\C/C=C\CCCCC (racemic) [Lipid 5, Racemic sn-1,2-dilinoleoyl PtdIns(3,4,5)P3]
fold-activation of GST-PKBα (PDK1 activity) [1]: 36 fold

fold reduction of the rate of activation of GST-PKBα compared to full length wild-type GST-PDK1 ([3]; PtdIns(3,4,5)P3 present): about 30 fold
B2: GST-ΔPH-PDK1: PDK1 mutant lacking the putative C-terminal PH domain, residues 1-450, GST fusion (protein, UniProt O15530 1-450, looked up, fragment)
chain: MARTTSQLYDAVPIQSSVVLCSCPSPSMVRTQTESSTPPGIPGGSRQGPAMDGTAAEPRPGAGSLQHAQPPPQPRKKRPEDFKFGKILGEGSFSTVVLARELATSREYAIKILEKRHIIKENKVPYVTRERDVMSRLDHPFFVKLYFTFQDDEKLYFGLSYAKNGELLKYIRKIGSFDETCTRFYTAEIVSALEYLHGKGIIHRDLKPENILLNEDMHIQITDFGTAKVLSPESKQARANSFVGTAQYVSPELLTEKSACKSSDLWALGCIIYQLVAGLPPFRAGNEYLIFQKIIKLEYDFPEKFFPKARDLVEKLLVLDATKRLGCEEMEGYGPLKAHPFFESVTWENLHQQTPPKLTAYLPAMSEDDEDCYGNYDNLLSQFGCMQVSSSSSSHSLSASDTGLPQRSGSNIEQYIHDLDSNSFELDLQFSEDEKRLLLEKQAGGNPWHQ
modifications: GST fusion tag
notes: PDK1 mutant lacking the putative C-terminal PH domain, residues 1-450, GST fusion
